The values below come from patent publication US9725448B2, “Neprilysin inhibitors” (THERAVANCE BIOPHARMA R&D IP, LLC, priority 2011, dated 2017).

Broadly, the Ki is the dissociation constant of the complex between target and ligand, obtained from inhibition or displacement.

Some results are limits rather than exact numbers.

For this assay, the target named is T1, human NEP (Homo sapiens, UniProt P08473).
T1 construct: purchased R&D Systems, Minneapolis, Minn; 1182-ZN
T1 sequence (P08473 52-750 limits assumed): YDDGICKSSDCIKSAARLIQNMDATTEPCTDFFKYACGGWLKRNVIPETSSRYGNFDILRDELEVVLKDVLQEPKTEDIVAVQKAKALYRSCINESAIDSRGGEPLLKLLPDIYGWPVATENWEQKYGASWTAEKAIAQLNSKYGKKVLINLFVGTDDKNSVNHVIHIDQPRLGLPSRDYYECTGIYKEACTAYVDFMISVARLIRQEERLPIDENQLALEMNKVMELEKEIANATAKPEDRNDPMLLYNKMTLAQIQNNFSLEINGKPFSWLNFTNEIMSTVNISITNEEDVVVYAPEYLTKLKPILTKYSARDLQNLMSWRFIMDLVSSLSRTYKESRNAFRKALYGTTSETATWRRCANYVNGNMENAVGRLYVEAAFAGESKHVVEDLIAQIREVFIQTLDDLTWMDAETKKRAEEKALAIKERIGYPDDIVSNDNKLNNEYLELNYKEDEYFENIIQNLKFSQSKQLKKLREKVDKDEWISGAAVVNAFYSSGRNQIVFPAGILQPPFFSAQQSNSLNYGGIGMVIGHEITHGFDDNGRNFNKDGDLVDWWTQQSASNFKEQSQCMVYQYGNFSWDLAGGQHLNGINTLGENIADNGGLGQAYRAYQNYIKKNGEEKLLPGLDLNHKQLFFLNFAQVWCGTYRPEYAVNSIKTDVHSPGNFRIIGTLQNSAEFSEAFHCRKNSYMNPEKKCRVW
The assay can be described thus: In vitro enzyme inhibition assay at human NEP (fluorogenic peptide substrate). Format: biochemical. To be noted: pKi values at human NEP (recombinant), given as ranges. The protocol: The inhibitory activities of compounds at human and rat neprilysin (EC 3.4.24.11; NEP) and human angiotensin converting enzyme (ACE) were determined using in vitro assays as described below.
Recombinant human NEP and recombinant human ACE were obtained commercially (R&D Systems, Minneapolis, Minn., catalog numbers 1182-ZN and 929-ZN, respectively). The fluorogenic peptide substrate Mca-D-Arg-Arg-Leu-Dap-(Dnp)-OH (Medeiros et al. (1997) Braz. J. Med. Biol. Res. 30:1157-62; Anaspec, San Jose, Calif.) and Abz-Phe-Arg-Lys(Dnp)-Pro-OH (Araujo et al. (2000) Biochemistry 39:8519-8525; Bachem, Torrance, Calif.) were used in the NEP and ACE assays respectively.
The assays were performed in 384-well white opaque plates at 37° C. using the fluorogenic peptide substrates at a concentration of 10 μM in Assay Buffer (NEP: 50 mM HEPES, pH 7.5, 100 mM NaCl, 0.01% polyethylene glycol sorbitan monolaurate (Tween-20), […]; ACE: 50 mM HEPES, pH 7.5, 100 mM NaCl, 0.01% Tween-20, 1 μM ZnSO4).
Test compounds were assayed over the range of concentrations from 10 μM to 20 pM. Test compounds were added to the enzymes and incubated for 30 minute at 37° C. prior to initiating the reaction by the addition of substrate. Reactions were terminated after 20 minutes of incubation at 37° C. by the addition of glacial acetic acid to a final concentration of 3.6% (v/v).
Plates were read on a fluorometer with excitation and emission wavelengths set to 320 nm and 405 nm, respectively. Inhibition constants were obtained by nonlinear regression of the data using the equation (GraphPad Software, Inc., San Diego, Calif.): ν=ν0/[1+(I/K′)] where ν is the reaction rate, ν0 is the uninhibited reaction rate, I is the inhibitor concentration and K′ is the apparent inhibition constant.
Compounds of the invention were tested in this assay and found to have pKi values at human NEP as follows.
Turning to `C[C@@](O)(CN(Cc1ccc(-c2cccc(Cl)c2)cc1)NC(=O)c1cc(-c2cnccn2)n[nH]1)C(=O)O` [Example 7-8, (R)-3-[N-(3′-Chlorobiphenyl-4-ylmethyl)-N′-(5-pyrazin-2-yl-2H-pyrazole-3-carbonyl)-hydrazino]-2-hydroxy-2-methyl-propionic acid], the Ki was 0.0126 to 0.1 µM. In the case of `CN(C)C(=O)c1cc(C(=O)NN(Cc2ccc(-c3cccc(Cl)c3)cc2)C[C@@](C)(O)C(=O)O)[nH]n1` [Example 7-9, (R)-3-[N-(3′-Chlorobiphenyl-4-ylmethyl)-N′-(5-dimethylcarbamoyl-2H-pyrazole-3-carbonyl)-hydrazino]-2-hydroxy-2-methyl-propionic acid] it was 0.0126 to 0.1 µM; in that of `C[C@@](O)(CN(Cc1ccc(-c2cccc(Cl)c2)cc1)NC(=O)c1cc(C(=O)O)n[nH]1)C(=O)O` [Example 7-10, 5-[N′—((R)-2-Carboxy-2-hydroxy-propyl)-N′-(3′-chlorobiphenyl-4-ylmethyl)-hydrazinocarbonyl]-1H-pyrazole-3-carboxylic acid], not above 0.001 µM. As for `C[C@@](O)(CN(Cc1ccc(-c2cccc(Cl)c2)cc1)NC(=O)c1cc(O)no1)C(=O)O` [Example 7-11, (R)-3-[N-(3′-Chlorobiphenyl-4-ylmethyl)-N′-(3-hydroxy-isoxazole-5-carbonyl)-hydrazino]-2-hydroxy-2-methyl-propionic acid], the Ki is not above 0.001 µM. As to `Cc1ccc(Cl)cc1-c1ccc(CN(C[C@@](C)(O)C(=O)O)NC(=O)c2cc(O)no2)cc1` [Example 7-12, (R)-3-[N-(5′-Chloro-2′-methyl-biphenyl-4-ylmethyl)-N′-(3-hydroxy-isoxazole-5-carbonyl)-hydrazino]-2-hydroxy-2-methyl-propionic acid], the Ki was not above 0.001 µM. In the case of `C[C@@](O)(CN(Cc1ccc(-c2cc(Cl)cc(Cl)c2)cc1)NC(=O)c1cc(O)no1)C(=O)O` [Example 7-13, (R)-3-[N-(3′,5′-Dichlorobiphenyl-4-ylmethyl)-N′-(3-hydroxy-isoxazole-5-carbonyl)-hydrazino]-2-hydroxy-2-methyl-propionic acid] it was 0.0126 to 0.1 µM; in that of `COc1ccccc1-c1ccc(CN(C[C@@](C)(O)C(=O)O)NC(=O)c2cc(O)no2)cc1` [Example 7-14, (R)-2-Hydroxy-3-[N′-(3-hydroxy-isoxazole-5-carbonyl)-N-(2′-methoxy-biphenyl-4-ylmethyl)-hydrazino]-2-methyl-propionic acid], 0.00126 to 0.01 µM.

Regarding `C[C@@](O)(CN(Cc1ccc(-c2ccccc2Cl)cc1)NC(=O)c1cc(O)no1)C(=O)O` [Example 7-15, (R)-3-[N-(2′-Chlorobiphenyl-4-ylmethyl)-N′-(3-hydroxy-isoxazole-5-carbonyl)-hydrazino]-2-hydroxy-2-methyl-propionic acid], the Ki was 0.0126 to 0.1 µM. Regarding `C[C@@](O)(CN(Cc1ccc(-c2ccccc2O)cc1)NC(=O)c1cc(O)no1)C(=O)O` [Example 7-16, (R)-2-Hydroxy-3-[N-(2′-hydroxy-biphenyl-4-ylmethyl)-N′-(3-hydroxy-isoxazole-5-carbonyl)-hydrazino]-2-methyl-propionic acid], the Ki is 0.00126 to 0.01 µM. In the case of `C[C@@](O)(CN(Cc1ccc(-c2ccccc2F)cc1)NC(=O)c1cc(O)no1)C(=O)O` [Example 7-17, (R)-3-[N-(2′-Fluorobiphenyl-4-ylmethyl)-N′-(3-hydroxy-isoxazole-5-carbonyl)-hydrazino]-2-hydroxy-2-methyl-propionic acid] it was 0.00126 to 0.01 µM; in that of `C[C@@](O)(CN(Cc1ccc(-c2cc(F)ccc2F)cc1)NC(=O)c1cc(O)no1)C(=O)O` [Example 7-18, (R)-3-[N-(2′,5′-Difluorobiphenyl-4-ylmethyl)-N′-(3-hydroxy-isoxazole-5-carbonyl)-hydrazino]-2-hydroxy-2-methyl-propionic acid], 0.00126 to 0.01 µM; in that of `C[C@@](O)(CN(Cc1ccc(-c2cc(Cl)ccc2Cl)cc1)NC(=O)c1cc(O)no1)C(=O)O` [Example 7-19, (R)-3-[N-(2′,5′-Dichlorobiphenyl-4-ylmethyl)-N′-(3-hydroxy-isoxazole-5-carbonyl)-hydrazino]-2-hydroxy-2-methyl-propionic acid], not above 0.001 µM. In the case of `C[C@@](O)(CN(Cc1ccc(-c2cccc(F)c2)cc1)NC(=O)c1cc(O)no1)C(=O)O` [Example 7-20, (R)-3-[N-(3′-Fluorobiphenyl-4-ylmethyl)-N′-(3-hydroxy-isoxazole-5-carbonyl)-hydrazino]-2-hydroxy-2-methyl-propionic acid] it was 0.00126 to 0.01 µM. In the case of `C[C@@](O)(CN(Cc1ccc(-c2cccc(Cl)c2)cc1)NC(=O)c1c[nH]c(=O)o1)C(=O)O` [Example 7-21, (R)-3-[N-(3′-Chlorobiphenyl-4-ylmethyl)-N′-(2-oxo-2,3-dihydro-oxazole-5-carbonyl)-hydrazino]-2-hydroxy-2-methyl-propionic acid] it was 0.00126 to 0.01 µM; in that of `C[C@@](O)(CN(Cc1ccc(-c2cc(Cl)ccc2F)cc1)NC(=O)c1c[nH]c(=O)o1)C(=O)O` [Example 7-22, (R)-3-[N-(5′-Chloro-2′-fluorobiphenyl-4-ylmethyl)-N′-(2-oxo-2,3-dihydro-oxazole-5-carbonyl)-hydrazino]-2-hydroxy-2-methyl-propionic acid], 0.00126 to 0.01 µM; in that of `C[C@@](O)(CN(Cc1ccc(-c2cc(Cl)ccc2F)cc1)NC(=O)c1nnn[nH]1)C(=O)O` [Example 7-23, (R)-3-[N-(5′-Chloro-2′-fluorobiphenyl-4-ylmethyl)-N′-(1H-tetrazole-5-carbonyl)-hydrazino]-2-hydroxy-2-methyl-propionic acid], 0.00126 to 0.01 µM.

Consider `Cc1ccc(Cl)cc1-c1ccc(CN(C[C@@](C)(O)C(=O)O)NC(=O)c2nnn[nH]2)cc1` [Example 7-24, (R)-3-[N-(5′-Chloro-2′-methyl-biphenyl-4-ylmethyl)-N′-(1H-tetrazole-5-carbonyl)-hydrazino]-2-hydroxy-2-methyl-propionic acid], for which the Ki is 0.00126 to 0.01 µM. In the case of `C[C@@](O)(CN(Cc1ccc(-c2cccc(Cl)c2)cc1)NC(=O)c1cnc(O)nc1)C(=O)O` [Example 7-25, (R)-3-[N-(3′-Chlorobiphenyl-4-ylmethyl)-N′-(2-hydroxy-pyrimidine-5-carbonyl)-hydrazino]-2-hydroxy-2-methyl-propionic acid] it was 0.00126 to 0.01 µM. In the case of `C[C@@](O)(CN(Cc1ccc(-c2cccc(Cl)c2)cc1)NC(=O)c1cc(C(=O)O)ncn1)C(=O)O` [Example 7-26, 6-[N′—((R)-2-Carboxy-2-hydroxy-propyl)-N′-(3′-chlorobiphenyl-4-ylmethyl)-hydrazinocarbonyl]-pyrimidine-4-carboxylic acid] it was not above 0.001 µM; in that of `CC(C)(C[C@@H](Cc1ccc(-c2ccccc2)cc1)NC(=O)c1cc(O)no1)C(=O)O` [Example 8A, (R)-5-Biphenyl-4-yl-4-[(3-hydroxy-isoxazole-5-carbonyl)-amino]-2,2-dimethyl-pentanoic acid], not above 0.001 µM. In the case of `CC(C)(C[C@@H](Cc1ccc(-c2ccccc2)cc1)NC(=O)c1cnn[nH]1)C(=O)O` [Example 9-1, (R)-5-Biphenyl-4-yl-2,2-dimethyl-4-[(3H-[1,2,3]triazole-4-carbonyl)-amino]-pentanoic acid] it was 0.00126 to 0.01 µM; in that of `CC(C)(C[C@@H](Cc1ccc(-c2ccccc2)cc1)NC(=O)c1nc(O)n[nH]1)C(=O)O` [Example 9-3, (R)-5-Biphenyl-4-yl-4-[(5-hydroxy-2H-[1,2,4]triazole-3-carbonyl)-amino]-2,2-dimethyl-pentanoic acid], 0.00126 to 0.01 µM; in that of `CC(C)(C[C@@H](Cc1ccc(-c2ccccc2)cc1)NC(=O)c1ncn[nH]1)C(=O)O` [Example 9-4, (R)-5-Biphenyl-4-yl-2,2-dimethyl-4-[(2H-[1,2,4]triazole-3-carbonyl)-amino]-pentanoic acid], 0.0126 to 0.1 µM. For the compound `CC(C)(C[C@@H](Cc1ccc(-c2ccccc2)cc1)NC(=O)c1cnc(O)nc1)C(=O)O` [Example 9-5, (R)-5-Biphenyl-4-yl-4-[(2-hydroxy-pyrimidine-5-carbonyl)-amino]-2,2-dimethyl-pentanoic acid], the Ki is 0.00126 to 0.01 µM.

`CC(C)(C[C@@H](Cc1ccc(-c2ccccc2)cc1)NC(=O)c1cc(C(=O)O)n[nH]1)C(=O)O` [Example 9-6, 5-((R)-1-Biphenyl-4-ylmethyl-3-carboxy-3-methyl-butylcarbamoyl)-1H-pyrazole-3-carboxylic acid]: the Ki is not above 0.001 µM. In the case of `CC(C)(C[C@@H](Cc1ccc(-c2ccccc2)cc1)NC(=O)c1cc(C(=O)N2CCOCC2)n[nH]1)C(=O)O` [Example 9-8, (R)-5-Biphenyl-4-yl-2,2-dimethyl-4-{[5-(morpholine-4-carbonyl)-2H-pyrazole-3-carbonyl]-amino}-pentanoic acid] it was 0.0126 to 0.1 µM.
